Measurements as given in article PMC4393105, “tRNA^Glu Increases the Affinity of Glutamyl-tRNA Synthetase for Its Inhibitor Glutamyl-Sulfamoyl-Adenosine, an Analogue of the Aminoacylation Reaction Intermediate Glutamyl-AMP: Mechanistic and Evolutionary Implications” (PLoS ONE, 2015).
“And” between values parts separate entries of the source, which are not always exact repeats. Equal entries are not always repeated.

Experiments:
[1] = molecular target: T1, E. coli GluRS + S. cerevisiae tRNA^Phe (Escherichia coli, UniProt P04805); assay: Isothermal titration microcalorimetry of Glu-AMS binding to GluRS in the presence of non-cognate tRNA^Phe; conditions: for Kd: Kd (dissociation constant), Kd = 1/Kb
T1 construct: His tag (histidine tag) (C); made in house
Protocol: (§1) Overproduction and purification of E. coli GluRS were performed as previously described with the following modifications. A C-terminal histidine-tagged GluRS was used instead of the N-terminal tagged one. The overproduction was induced overnight at 30°C with 1 mM IPTG.
(§2) Overproduction and purification of E. coli tRNA^Glu-enriched total tRNA was done as described. […] Saccharomyces cerevisiae tRNA^Phe, used as a negative control, was purchased from Sigma-Aldrich (cat No: R4018).
(§3) The GluRS solution with or without tRNA was dialyzed overnight in a D-tube dialyzer (Novagen) against 2 L of dialysis buffer (50 mM HEPES-KOH, pH 7.2, 10 mM MgCl2) at 4°C with light stirring. The next morning, the dialyzed solution was recovered and the volume adjusted by adding dialysis buffer to obtain the desired concentration (typically 9 μM GluRS and 11 μM tRNA^Glu). This solution was kept on ice until use. Glu-AMS was diluted in the dialysis buffer to obtain a final concentration of 90 μM. All buffers and solutions were degased with stirring under vacuum. The microcalorimetry experiments were carried out in a VP-ITC 100 microcalorimeter (MicroCal, GE Healthcare) using deionized water as an internal reference for all assays. VPViewer ITC 2000 and Origin v 5.0 softwares (Microcal Software, Inc) were used for data collection and analysis, respectively.
To measure the thermodynamic parameters of the interaction between Glu-AMS and GluRS, in the presence and in the absence of tRNA, a solution containing 9 μM GluRS with or without a stoichiometric excess of tRNA^Glu or S. cerevisiae tRNA^Phe (Table 1) was placed in the sample cell of the microcalorimeter. The following conditions were used for all tests: reference power was set at 12 μcal/s and stirring at 300 rpm, the “high” feedback mode and “No check Temp”, “Fast Equil” and “Auto” ITC equilibration options were selected. The 90 μM Glu-AMS solution was loaded in the injection syringe. After a first injection of 1 μL over 2 s, a series of 39 injections (7.4 μL over 14.8 s) with 240 s between injections was performed. Injections of Glu-AMS in GluRS alone, GluRS•tRNA^Glu or GluRS•tRNA^Phe, were performed at 30°C (303 K), and done in duplicate. Injections of Glu-AMS in GluRS were also performed at 20°C and 37°C (293 and 310 K): 14 injections (20 μL over 40 s) followed the first injection of 1 μL. Each temperature was tested in duplicate, and in triplicate at 37°C.
(§4) The following nomenclature was used to describe the interaction at equilibrium between Glu-AMS and either GluRS or a GluRS•tRNA complex: GluRS•Glu-AMS↔GluRS+[…] Kd=[GluRS]×[Glu-AMS]/[GluRS•Glu-AMS] 1/Kd=Kb (binding constant, sometimes referred to as Ka).

[2] = molecular target: T2, E. coli GluRS + E. coli tRNA^Glu (Escherichia coli, UniProt P04805); assay: Isothermal titration microcalorimetry of Glu-AMS binding to GluRS in the presence of tRNA^Glu; conditions: for Kd: Kd = 1/Kb
T2 construct: His tag (histidine tag) (C); made in house
Protocol: as §1, §2, §3
To measure the thermodynamic parameters of the interaction between Glu-AMS and GluRS, in the presence and in the absence of tRNA, a solution containing 9 μM GluRS with or without a stoichiometric excess of tRNA^Glu or S. cerevisiae tRNA^Phe (Table 1) was placed in the sample cell of the microcalorimeter. The following conditions were used for all tests: reference power was set at 12 μcal/s and stirring at 300 rpm, the “high” feedback mode and “No check Temp”, “Fast Equil” and “Auto” ITC equilibration options were selected. […] After a first injection of 1 μL over 2 s, a series of 39 injections (7.4 μL over 14.8 s) with 240 s between injections was performed. Injections of Glu-AMS in GluRS alone, GluRS•tRNA^Glu or GluRS•tRNA^Phe, were performed at 30°C (303 K), and done in duplicate. Injections of Glu-AMS in GluRS were also performed at 20°C and 37°C (293 and 310 K): 14 injections (20 μL over 40 s) followed the first injection of 1 μL. Each temperature was tested in duplicate, and in triplicate at 37°C.
as §4

murine hepatic GluRS = system: murine hepatic GluRS; parameters: method as in PMID 15895686; conditions: cited from earlier work
[3] = system: Escherichia coli glutamyl-tRNA synthetase (GluRS); parameters: method as in PMID 15895686; conditions: competitive inhibitor; cited from earlier work
[4] = single ITC run, tRNA^Phe 11.23 µM, 303 K, [ligand] 90 µM, [GluRS] 2.198 µM
[5] = single ITC run, tRNA^Phe 11.23 µM, 303 K, [ligand] 90 µM, [GluRS] 2.434 µM
[6] = with S. cerevisiae tRNA^Phe, 30°C, weighted mean of ITC runs
[7] = single ITC run, tRNA^Glu 5.3 µM, 303 K, [ligand] 45 µM, [GluRS] 2.636 µM
[8] = single ITC run, tRNA^Glu 10.6 µM, 303 K, [ligand] 90 µM, [GluRS] 5.792 µM
[9] = with E. coli tRNA^Glu, 30°C, weighted mean of ITC runs

T2 sequence (P04805 whole entry): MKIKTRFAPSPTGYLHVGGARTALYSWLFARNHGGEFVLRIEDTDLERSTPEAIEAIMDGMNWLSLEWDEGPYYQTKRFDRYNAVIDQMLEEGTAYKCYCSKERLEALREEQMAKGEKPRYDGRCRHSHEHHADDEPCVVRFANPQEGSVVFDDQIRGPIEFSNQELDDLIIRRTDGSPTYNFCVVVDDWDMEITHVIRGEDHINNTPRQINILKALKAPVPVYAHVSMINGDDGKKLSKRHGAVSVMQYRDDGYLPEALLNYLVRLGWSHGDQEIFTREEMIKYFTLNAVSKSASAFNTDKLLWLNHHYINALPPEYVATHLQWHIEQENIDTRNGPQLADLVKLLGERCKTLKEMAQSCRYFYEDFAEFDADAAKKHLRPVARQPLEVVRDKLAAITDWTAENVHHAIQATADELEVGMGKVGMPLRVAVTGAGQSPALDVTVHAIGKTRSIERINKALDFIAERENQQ
T1 sequence (P04805 whole entry): as above

**Q.** What does the source list for `Nc1ncnc2c1ncn2[C@@H]1O[C@H](COS(=O)(=O)NC(=O)[C@@H](N)CCC(=O)O)[C@@H](O)[C@H]1O` [Glu-AMS, 5’-O-[N-(L-glutamyl)sulfamoyl]adenosine]?
**A.** Kd [1, 4]: 478 ± 86 nM; Kd [1, 5]: 987 ± 190 nM; -TΔSb [1, 4]: -3875 ± 242; n (stoichiometry coefficient) [1, 4]: 0.9925 ± 0.048; ΔGb (reaction energy) [1, 4]: -8.762 kcal/mol; ΔHb (reaction enthalpy) [1, 4]: -4.882 ± 0.305 kcal/mol; ΔSb (reaction entropy) [1, 4]: 12.79 ± 0.80 cal/mol·K; -TΔSb [1, 5]: -1658 ± 172; n (stoichiometry coefficient) [1, 5]: 0.9835 ± 0.0809; ΔGb (reaction energy) [1, 5]: -8.326 kcal/mol; ΔHb (reaction enthalpy) [1, 5]: -6.657 ± 0.689 kcal/mol; ΔSb (reaction entropy) [1, 5]: 5.472 ± 0.57 cal/mol·K; affinity of GluRS for Glu-AMS in the presence of the non-cognate tRNA^Phe ([1]; versus absence of tRNA): not altered; ΔGb (reaction energy) ([1]; with S. cerevisiae tRNA^Phe, 30°C, simple average, ΔGb = -RT Ln Kb): -8.544 ± 0.309 kcal/mol; -TΔSb [1, 6]: -2.398 ± 0.14 kcal/mol; n (stoichiometry coefficient) [1, 6]: 0.9902 ± 0.0410; ΔHb (reaction enthalpy) [1, 6]: -5.173 ± 0.279 kcal/mol; ΔSb (reaction entropy) [1, 6]: 7.92 ± 0.46 cal/mol·K; Kd ([2]; K d aa-AMP aaRS, in the presence of tRNA^Glu): 7 nM; Kd ([2]; Kd (dissociation constant), single ITC run, tRNA^Glu 5.3 µM, 303 K, [ligand] 45 µM, [GluRS] 2.636 µM): 5.49 ± 1.35 nM; Kd ([2]; Kd (dissociation constant), single ITC run, tRNA^Glu 10.6 µM, 303 K, [ligand] 90 µM, [GluRS] 5.792 µM): 8.96 ± 2.26 nM; -TΔSb [2, 7]: -2908 ± 33; n (stoichiometry coefficient) [2, 7]: 1.004 ± 0.006; ΔGb (reaction energy) [2, 7]: -11.452 kcal/mol; ΔHb (reaction enthalpy) [2, 7]: -8.537 ± 0.097 kcal/mol; ΔSb (reaction entropy) [2, 7]: 9.596 ± 0.11 cal/mol·K; -TΔSb [2, 8]: -3548 ± 38; n (stoichiometry coefficient) [2, 8]: 1.000 ± 0.006; ΔGb (reaction energy) [2, 8]: -11.156 kcal/mol; ΔHb (reaction enthalpy) [2, 8]: -7.61 ± 0.081 kcal/mol; ΔSb (reaction entropy) [2, 8]: 11.71 ± 0.12 cal/mol·K; -TΔSb [2, 9]: -3.186 ± 0.025 kcal/mol; n (stoichiometry coefficient) [2, 9]: 1.0018 ± 0.0041; ΔHb (reaction enthalpy) [2, 9]: -7.99 ± 0.062 kcal/mol; ΔSb (reaction entropy) [2, 9]: 10.5 cal/mol·K and 10.52 ± 0.08 cal/mol·K; fold decrease of the dissociation constant Kd in the presence of tRNA^Glu ([2]; with versus without tRNA^Glu): 50 fold; free energy of binding difference observed in the presence of tRNA^Glu ([2]; with versus without tRNA^Glu, 30°C): about 2.2 kcal/mol; times less efficient against murine hepatic GluRS than against E. coli GluRS (murine hepatic GluRS): 25 times; Ki [3]: 2.8 nM
